Values belong to the compound of their own block, whether it stands above or below them. Calls of active or inactive are those of the source. The calls are words filed in the database; no cut-off is given here.
Tests used:
Hepatitis B virus [1] = assay: Antiviral activity against Hepatitis B virus genotype D infected in HepDE19 cells assessed as inhibition of viral replication by measuring decrease in intracellular rcDNA level by bDNA assay; type: functional, organism-based
[2] = Cytotoxicity against human HepDE19 cells by CellTiter-Glo assay; type: toxicity, cell-based
[3] = Selectivity index, ratio of CC50 for cytotoxicity against human HepDE19 cells to EC50 for antiviral activity against Hepatitis B virus genotype D infected in HepDE19 cells; type: toxicity, cell-based; conditions: read-out: Ratio CC50/EC50
[4] = Intrinsic clearance in mouse liver microsomes; type: ADME, Microsome; conditions: read-out: CLH
[5] = Intrinsic clearance in human liver microsomes; type: ADME, Microsome; conditions: read-out: CLH
[6] = Half life in CD-1 mouse at 10 mg/kg, po; type: ADME, organism-based; conditions: in vivo
[7] = Cmax in CD-1 mouse at 10 mg/kg, po; type: ADME, organism-based; conditions: in vivo
[8] = AUC(last) in CD-1 mouse at 10 mg/kg, po; type: ADME, organism-based; conditions: in vivo
[9] = Drug uptake in CD-1 mouse liver at 10 mg/kg, po or 2 mg/kg, iv measured after 24 hrs; type: ADME, organism-based; conditions: read-out: Drug uptake
Cytochrome P450 3A4 = Cytochrome P450 3A4 (Homo sapiens, UniProt P08684); assay: Inhibition of CYP3A4 (unknown origin); type: ADME
Cytochrome P450 2D6 = Cytochrome P450 2D6 (Homo sapiens, UniProt P10635); assay: Inhibition of CYP2D6 (unknown origin); type: ADME
Cytochrome P450 2C9 = Cytochrome P450 2C9 (Homo sapiens, UniProt P11712); assay: Inhibition of CYP2C9 (unknown origin); type: ADME
Cytochrome P450 2C19 = Cytochrome P450 2C19 (Homo sapiens, UniProt P33261); assay: Inhibition of CYP2C19 (unknown origin); type: ADME
Cytochrome P450 2B6 = target: T1, Cytochrome P450 2B6 (Homo sapiens, UniProt P20813); assay: Inhibition of CYP2B6 (unknown origin); type: ADME
T1 sequence (P20813 whole entry): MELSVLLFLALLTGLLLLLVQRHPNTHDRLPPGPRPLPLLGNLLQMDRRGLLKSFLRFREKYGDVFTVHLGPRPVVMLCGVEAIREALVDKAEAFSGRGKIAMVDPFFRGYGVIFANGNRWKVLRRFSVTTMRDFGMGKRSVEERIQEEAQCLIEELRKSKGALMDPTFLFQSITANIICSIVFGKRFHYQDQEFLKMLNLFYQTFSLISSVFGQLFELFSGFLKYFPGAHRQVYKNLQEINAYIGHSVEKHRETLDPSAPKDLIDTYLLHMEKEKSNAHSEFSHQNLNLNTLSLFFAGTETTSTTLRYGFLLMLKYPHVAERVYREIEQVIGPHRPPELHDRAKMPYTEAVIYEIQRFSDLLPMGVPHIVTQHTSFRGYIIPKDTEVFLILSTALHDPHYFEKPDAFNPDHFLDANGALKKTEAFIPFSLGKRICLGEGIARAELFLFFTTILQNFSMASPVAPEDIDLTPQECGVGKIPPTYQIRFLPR

Hepatitis B virus [10] = assay: Anti-viral activity against Hepatitis B virus infected in mouse assessed as log10 reduction of HBV DNA levels in serum at 3 mg/kg, po qd for 7 days; type: functional; conditions: time 7 day
Hepatitis B virus [11] = assay: Anti-viral activity against Hepatitis B virus infected in mouse assessed as log10 reduction of HBV DNA levels in serum at 10 mg/kg, po qd for 7 days; type: functional; conditions: time 7 day
Hepatitis B virus [12] = assay: Antiviral activity against Hepatitis B virus genotype D harboring core protein-T33N mutant; type: functional, organism-based
[13] = target: Core antigen (Hepatitis B virus) (UniProt Q03732); assay: Binding affinity to Hepatitis B virus core protein assessed as inhibition of capsid assembly by measuring induction of empty capsid formation; conditions: filed as modulator
[14] = target: Core antigen (Hepatitis B virus) (UniProt Q03732); assay: Binding affinity to Hepatitis B virus core protein assessed as inhibition of capsid assembly by measuring inhibition of pgRNA-encapsidation; conditions: filed as modulator
Hepatitis B virus [15] = assay: Anti-viral activity against Hepatitis B virus infected in mouse assessed as log10 reduction of HBV DNA levels in serum at 0.3 mg/kg, po qd for 7 days; type: functional; conditions: time 7 day
Hepatitis B virus [16] = assay: Anti-viral activity against Hepatitis B virus infected in mouse assessed as log10 reduction of HBV DNA levels in serum at 1 mg/kg, po qd for 7 days; type: functional; conditions: time 7 day
Hepatitis B virus [17] = assay: Antiviral activity against Hepatitis B virus genotype D infected in HepG2-hNTCP-C4 cells assessed as inhibition of cccDNA formation by de novo infection assay; type: functional, organism-based
Hepatitis B virus [18] = assay: Antiviral activity against Hepatitis B virus Genotype A (NCBI AF537372); type: functional, organism-based
Hepatitis B virus [19] = assay: Antiviral activity against Hepatitis B virus Genotype B (NCBI GQ205440); type: functional, organism-based
Hepatitis B virus [20] = assay: Antiviral activity against Hepatitis B virus Genotype B (NCBI KU964112); type: functional, organism-based
Hepatitis B virus [21] = assay: Antiviral activity against Hepatitis B virus Genotype C (NCBI AB198079); type: functional, organism-based; conditions: genotype C (NCBI […])
Hepatitis B virus [22] = assay: Antiviral activity against Hepatitis B virus Genotype D (NCBI U95551); type: functional, organism-based
Hepatitis B virus [23] = assay: Antiviral activity against Hepatitis B virus Genotype E (NCBI HE974380); type: functional, organism-based
Hepatitis B virus [24] = assay: Antiviral activity against Hepatitis B virus Genotype E (NCBI AB091255); type: functional, organism-based
Hepatitis B virus [25] = assay: Antiviral activity against Hepatitis B virus Genotype F (NCBI HE974369); type: functional, organism-based
Hepatitis B virus [26] = assay: Antiviral activity against Hepatitis B virus Genotype H (NCBI AB064315); type: functional, organism-based
Hepatitis B virus [27] = assay: Antiviral activity against Hepatitis B virus Genotype H (NCBI AB179747); type: functional, organism-based
Hepatitis B virus [28] = assay: Antiviral activity against Hepatitis B virus genotype D harboring core protein-I105T mutant; type: functional, organism-based
[29] = Hepatitis B virus, genotype D, HepDE19

Core antigen (Hepatitis B virus), sequence (Q03732 as listed by the source): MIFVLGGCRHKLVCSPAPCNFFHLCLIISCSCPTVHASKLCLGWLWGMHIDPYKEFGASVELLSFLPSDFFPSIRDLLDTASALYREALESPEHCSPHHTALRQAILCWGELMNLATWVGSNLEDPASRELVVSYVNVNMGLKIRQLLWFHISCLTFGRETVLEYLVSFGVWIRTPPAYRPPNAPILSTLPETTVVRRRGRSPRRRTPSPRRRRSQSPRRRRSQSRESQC
Cytochrome P450 2D6, sequence (P10635 whole entry): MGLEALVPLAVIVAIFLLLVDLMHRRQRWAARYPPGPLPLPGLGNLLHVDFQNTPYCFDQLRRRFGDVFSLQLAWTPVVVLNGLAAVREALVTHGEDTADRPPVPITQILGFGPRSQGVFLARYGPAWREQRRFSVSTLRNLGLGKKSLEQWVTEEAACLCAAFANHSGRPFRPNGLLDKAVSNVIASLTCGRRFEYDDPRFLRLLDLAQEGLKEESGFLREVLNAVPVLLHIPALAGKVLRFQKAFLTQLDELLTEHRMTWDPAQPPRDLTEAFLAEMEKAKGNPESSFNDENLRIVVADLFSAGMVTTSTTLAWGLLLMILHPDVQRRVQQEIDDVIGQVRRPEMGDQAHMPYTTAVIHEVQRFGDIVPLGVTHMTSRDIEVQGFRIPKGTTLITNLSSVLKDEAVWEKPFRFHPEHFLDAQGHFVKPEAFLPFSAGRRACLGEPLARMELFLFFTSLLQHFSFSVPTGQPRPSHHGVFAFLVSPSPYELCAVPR
Cytochrome P450 2C9, sequence (P11712 whole entry): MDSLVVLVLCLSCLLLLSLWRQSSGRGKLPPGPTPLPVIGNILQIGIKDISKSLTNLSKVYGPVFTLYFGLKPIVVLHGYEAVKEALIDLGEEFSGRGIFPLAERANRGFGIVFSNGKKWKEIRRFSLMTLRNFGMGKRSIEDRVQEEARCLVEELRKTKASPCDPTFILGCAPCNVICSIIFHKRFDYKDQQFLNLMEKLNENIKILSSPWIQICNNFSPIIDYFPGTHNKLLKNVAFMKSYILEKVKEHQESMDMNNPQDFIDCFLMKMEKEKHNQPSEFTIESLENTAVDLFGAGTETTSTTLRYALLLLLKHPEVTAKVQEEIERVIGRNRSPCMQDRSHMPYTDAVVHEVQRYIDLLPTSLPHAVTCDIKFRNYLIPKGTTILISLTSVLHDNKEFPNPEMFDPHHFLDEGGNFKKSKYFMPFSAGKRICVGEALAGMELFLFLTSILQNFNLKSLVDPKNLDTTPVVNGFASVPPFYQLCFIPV
Cytochrome P450 2C19, sequence (P33261 whole entry): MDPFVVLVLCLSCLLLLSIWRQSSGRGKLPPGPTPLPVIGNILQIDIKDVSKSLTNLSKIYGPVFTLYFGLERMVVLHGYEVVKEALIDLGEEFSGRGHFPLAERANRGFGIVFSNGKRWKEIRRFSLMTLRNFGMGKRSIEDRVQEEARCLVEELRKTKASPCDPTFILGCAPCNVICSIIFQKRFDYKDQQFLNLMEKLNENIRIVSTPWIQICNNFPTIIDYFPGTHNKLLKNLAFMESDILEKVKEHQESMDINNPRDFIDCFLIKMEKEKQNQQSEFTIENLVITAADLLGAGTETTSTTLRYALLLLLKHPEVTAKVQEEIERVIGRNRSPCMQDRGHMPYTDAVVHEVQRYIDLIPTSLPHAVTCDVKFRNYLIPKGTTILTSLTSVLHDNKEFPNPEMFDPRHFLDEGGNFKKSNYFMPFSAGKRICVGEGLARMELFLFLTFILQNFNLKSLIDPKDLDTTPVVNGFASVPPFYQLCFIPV
Cytochrome P450 3A4, sequence (P08684 whole entry): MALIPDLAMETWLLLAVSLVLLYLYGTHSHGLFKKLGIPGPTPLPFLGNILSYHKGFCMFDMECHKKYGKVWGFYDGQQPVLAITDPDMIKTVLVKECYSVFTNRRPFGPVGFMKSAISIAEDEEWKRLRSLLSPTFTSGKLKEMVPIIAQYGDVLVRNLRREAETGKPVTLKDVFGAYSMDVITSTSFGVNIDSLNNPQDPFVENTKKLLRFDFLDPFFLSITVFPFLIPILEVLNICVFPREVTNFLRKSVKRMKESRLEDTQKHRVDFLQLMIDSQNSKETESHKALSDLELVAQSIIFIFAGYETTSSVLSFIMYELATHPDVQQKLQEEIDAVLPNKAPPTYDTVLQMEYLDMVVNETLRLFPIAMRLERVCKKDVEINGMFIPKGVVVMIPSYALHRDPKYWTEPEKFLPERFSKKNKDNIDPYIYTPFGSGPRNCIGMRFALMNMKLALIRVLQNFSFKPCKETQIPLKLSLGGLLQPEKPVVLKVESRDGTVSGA

SMILES: CN(C(=O)c1cc2cc(F)c(F)c(F)c2[nH]1)[C@@H]1COCc2[nH]c(=O)c3cc(F)c(F)cc3c21
- EC50 (Hepatitis B virus [1]; [29]): 5 nM
- CC50 [2]: > 10000 nM
- selectivity ratio [3]: > 1500
- microsomal CLint [4]: 20 µL/min/mg
- microsomal CLint [5]: 31 µL/min/mg
- half-life [6]: 10.8 h
- Cmax [7]: 1080 ng/mL
- AUC(0-t) [8]: 15900 ng·h/mL
- concentration at 24 h [9]: 3230 ng/g

SMILES: CN(C(=O)Nc1ccc(F)c(C#N)c1)[C@@H]1COCc2[nH]c(=O)c3cc(F)c(F)cc3c21
- EC50 (Hepatitis B virus [1]; [29]): 8 nM
- CC50 [2]: > 10000 nM
- selectivity ratio [3]: > 1500
- half-life [6]: 2.4 h
- Cmax [7]: 720 ng/mL
- AUC(0-t) [8]: 4330 ng·h/mL
- concentration at 24 h [9]: 8 ng/g

SMILES: CN(C(=O)Nc1ccc(F)c(Cl)c1)[C@@H]1COCc2[nH]c(=O)c3cc(F)c(F)cc3c21
- EC50 (Hepatitis B virus [1]; [29]): 7 nM
- CC50 [2]: > 10000 nM
- selectivity ratio [3]: > 1500
- IC50 (Cytochrome P450 3A4): > 15000 nM
- IC50 (Cytochrome P450 2D6): > 15000 nM
- IC50 (Cytochrome P450 2C9): > 15000 nM
- IC50 (Cytochrome P450 2C19): > 15000 nM
- IC50 (Cytochrome P450 2B6): > 15000 nM
- microsomal CLint [4]: 27 µL/min/mg
- microsomal CLint [5]: 54 µL/min/mg
- half-life [6]: 3.1 h
- Cmax [7]: 690 ng/mL
- AUC(0-t) [8]: 6990 ng·h/mL
- concentration at 24 h [9]: 150 ng/g
- log(activity) (Hepatitis B virus [10]): 1.04
- log(activity) (Hepatitis B virus [11]): 2.86
- EC50 (Hepatitis B virus [12]): 400 nM

SMILES: CN(C(=O)c1cc2cc(F)c(F)cc2[nH]1)[C@@H]1COCc2[nH]c(=O)c3cc(F)c(F)cc3c21
- Activity [13]: Active
- Activity [14]: Active
- EC50 (Hepatitis B virus [1]; [29]): 5 nM
- CC50 [2]: > 10000 nM
- selectivity ratio [3]: > 1500
- microsomal CLint [4]: 25 µL/min/mg
- microsomal CLint [5]: 45 µL/min/mg
- half-life [6]: 10.7 h
- Cmax [7]: 2140 ng/mL
- AUC(0-t) [8]: 31800 ng·h/mL
- concentration at 24 h [9]: 4730 ng/g
- log(activity) (Hepatitis B virus [10]): 2.86
- log(activity) (Hepatitis B virus [15]): 1.48
- log(activity) (Hepatitis B virus [16]): 2.92
- EC50 (Hepatitis B virus [17]): 26 nM
- EC50 (Hepatitis B virus [18]): 1 nM
- EC50 (Hepatitis B virus [19]): 1 nM
- EC50 (Hepatitis B virus [20]): 1 nM
- EC50 (Hepatitis B virus [21]): 1 nM
- EC50 (Hepatitis B virus [22]): 1 nM
- EC50 (Hepatitis B virus [23]): 13 nM
- EC50 (Hepatitis B virus [24]): 1 nM
- EC50 (Hepatitis B virus [25]): 1 nM
- EC50 (Hepatitis B virus [26]): 1 nM
- EC50 (Hepatitis B virus [27]): 1 nM
- EC50 (Hepatitis B virus [28]): 6 nM
- EC50 (Hepatitis B virus [12]): 63 nM

SMILES: CN(C(=O)Nc1cc(F)c(F)c(F)c1)[C@@H]1COCc2[nH]c(=O)c3cc(F)c(F)cc3c21
- EC50 (Hepatitis B virus [1]; [29]): 18 nM
- CC50 [2]: > 10000 nM
- selectivity ratio [3]: > 1500

SMILES: CN(C(=O)c1cc2ccccc2[nH]1)[C@@H]1COCc2[nH]c(=O)c3cc(F)c(F)cc3c21
- EC50 (Hepatitis B virus [1]; [29]): 9 nM
- CC50 [2]: > 10000 nM
- selectivity ratio [3]: > 1500
- microsomal CLint [4]: 70 µL/min/mg
- microsomal CLint [5]: 91 µL/min/mg

Now from value to compound, other results behind:

- EC50 (Hepatitis B virus [1]; hepde19): 1030 nM
SMILES: CN(C(=O)Nc1ccc(F)c(Cl)c1)C1CCCc2[nH]c(=O)c3cc(F)c(F)cc3c21 (stereo in doubt)

- EC50 (Hepatitis B virus [1]; hepde19): 84 nM
SMILES: CN(C(=O)Nc1ccc(F)c(Cl)c1)C1CCCc2[nH]c(=O)c3ccccc3c21 (racemic)
- CC50 [2]: > 10000 nM
- selectivity ratio [3]: > 1500

- EC50 (Hepatitis B virus [1]; [29]): 470 nM
SMILES: CC(C)CN(C(=O)Nc1ccc(F)c(Cl)c1)C1CCCc2[nH]c(=O)c3ccccc3c21 (racemic)
- CC50 [2]: > 10000 nM
- selectivity ratio [3]: > 1500

- EC50 (Hepatitis B virus [1]; [29]): 87 nM
SMILES: CN(C(=O)Nc1ccc(F)c(Cl)c1)C1CCc2[nH]c(=O)c3ccccc3c21 (racemic)
- CC50 [2]: > 10000 nM
- selectivity ratio [3]: > 1500

- EC50 (Hepatitis B virus [1]; [29]): 45 nM
SMILES: CN(C(=O)Nc1ccc(F)c(Cl)c1)[C@@H]1CCc2[nH]c(=O)c3ccccc3c21
- CC50 [2]: > 10000 nM
- selectivity ratio [3]: > 1500

- EC50 (Hepatitis B virus [1]; hepde19): 45 nM
SMILES: CN(C(=O)Nc1ccc(F)c(Cl)c1)C1CCCc2[nH]c(=O)c3ccccc3c21 (stereo in doubt; 2b)

- EC50 (Hepatitis B virus [1]; hepde19): 760 nM
SMILES: CN(C(=O)Nc1ccc(F)c(Cl)c1)C1CCCc2[nH]c(=O)c3ccccc3c21 (stereo in doubt)

- EC50 (Hepatitis B virus [1]; [29]): 9 nM
- microsomal CLint [4]: 23 µL/min/mg
- microsomal CLint [5]: 86 µL/min/mg
SMILES: CN(C(=O)Nc1ccc(F)c(Cl)c1)[C@@H]1CNCc2[nH]c(=O)c3cc(F)c(F)cc3c21
- CC50 [2]: > 10000 nM
- selectivity ratio [3]: > 1500

- EC50 (Hepatitis B virus [1]; [29]): 33 nM
SMILES: CN(C(=O)Nc1ccccc1)[C@@H]1COCc2[nH]c(=O)c3cc(F)c(F)cc3c21
- CC50 [2]: > 10000 nM
- selectivity ratio [3]: > 1500

Reference: ChEMBL document CHEMBL5614459, “Conformationally Constrained Isoquinolinones as Orally Efficacious Hepatitis B Capsid Assembly Modulators” (ACS Med Chem Lett, 2024)
